Experimental data published in publication PMC10672942 (2023).

Columns and labels:
pApU (RNA, polymer) A/U [1] = assay: UV melting at 260 nm; details: Na+ (sodium cacodylate 50 mM); pH 7.0; r = 0.3 [peptide]/[phosphate], polynucleotide 2.0 × 10^-5 M; free Tm 48.9 °C; per base
pApU (RNA, polymer) A/U [2] = assay: fluorescence titration; details: Na+ (sodium cacodylate 50 mM); pH 7.0, 25 °C; Scatchard fit, fixed n = 0.3; per base
[3] = system: p(dAdT)2 (DNA, polymer) AT; assay: fluorescence titration; details: Na+ (sodium cacodylate 50 mM); pH 7.0, 25 °C; Scatchard fit, fixed n = 0.3; per base
[4] = system: p(dGdC)2 (DNA, polymer) GC; assay: fluorescence titration; details: Na+ (sodium cacodylate 50 mM); pH 7.0, 25 °C; Scatchard fit, fixed n = 0.3; per base
[5] = system: ds-dA10-dT10 (oligoAT10) (DNA, duplex) AAAAAAAAAA/TTTTTTTTTT; assay: HPLC after irradiation at 300 nm; details: ammonium acetate 100 mM; covalent; photoalkylation via quinone methide, 15 and 60 min, pH 7.0

SMILES | ΔTm (pApU (RNA, polymer) A/U [1]) [°C] | logKa (pApU (RNA, polymer) A/U [2]) | logKa [3] | logKa [4] | binding [5]
CN(C)Cc1cc(C[C@H](NC(=O)[C@@H](N)CCCCNC(=O)c2ccc3ccc4cccc5ccc2c3c45)C(=O)OCc2ccccc2)ccc1O | 1.4 ± 0.2 | 6.9 | 6.8 | 6.6 | yes
CN(C)Cc1cc(C[C@H](NC(=O)[C@@H](N)CNC(=O)c2ccc3ccc4cccc5ccc2c3c45)C(=O)OCc2ccccc2)ccc1O | 1.9 ± 0.6 | 6.8 | > 7 | 6.7 | –
